Where two headings read alike, the source gives them in different places.
Legend:
[1] = test system: Wistar rats with spinal cord injury; experiment: Spinal cord injury model (20 g compression on lower thoracic cord for 20 minutes); format: in vivo, rat
From the text: The present inventors have investigated the effects of repetitive or continuous intravenous administration of ginsenoside Rb1 using rats with spinal cord injury and the effects were compared with those of repetitive or continuous intravenous administration of a crude saponin fraction of medicinal ginseng. If pressure is loaded on certain spinal segments such as the lower thoracic cord, not only nerve cells (neurons) in the gray matter of the same region but also fiber tracts or pathways in the white matter of the same region are damaged. The damages to the fiber tracts or pathways of the white matter are further developed to the distal portions (caudal portions) as well as causing the secondary degeneration of the origins of the fiber tract or pathways, namely the upper nerve cell bodies (i.e. origins) which project fibers (nerve processes) to the fiber tracts or pathways. As a result, the damages to the fiber tracts or pathways of the white matter in the lower thoracic cord, which received compression loading, induce the secondary degeneration of the origins (nerve cell bodies) sending fibers (also termed nerve processes or axons) to the fiber tracts or pathways as well as the secondary degeneration of fiber tracts located distal to the lower thoracic cord (i.e. lumbar cord and sacral cord) to cause paraplegia of both limbs. Further, since the innervation from the brain regions proximal to the lumbar cord and sacral cord is cut off due to damage to the lower thoracic cord, the secondary degeneration of nerve cells in the gray matters of the lumbar cord and sacral cord is further induced, as a result, paraplegia of the limbs can not be recovered. For that model of the spinal cord injury, the present inventors have used male Wistar rats (body weight about 300 g) loaded with 20 g of compression on the lower thoracic cord for 20 minutes.
Under inhalation anesthesia by a mixture of nitrous oxide and halothane, the rats were loaded with 20 g of compression on the lower thoracic cord for 20 minutes. After more than 30 minutes passed, ginsenoside Rb1 dissolved in physiological saline was injected once into the left femoral vein (12 μg or 60 μg), thereafter continuous or repetitive intravenous administration of ginsenoside Rb1 was performed for 7 days by using an Alza osmotic minipump (12 μg/day or 60 μ/day). Control animals and sham-operated animals were administered with the same amount of physiological saline (vehicle) alone. The open field locomotor scores [Basso, Bettie and Bresnakan (BBB) scores] were measured in each animal before loading spinal cord injury, on the day of spinal cord injury and from 1st day to 7th day after the spinal cord injury for use as an index of motor functions (Basso D. M. et al., J. Neurotrauma, 13, 343-359, 1996). BBB scores of the sham-operated rats (normal rats) were 20-21.
Under inhalation anesthesia by a mixture of nitrous oxide and halothane, the rats were loaded with 20 g of compression on the lower thoracic cord for 20 minutes. More than 30 minutes later, the crude saponin fraction dissolved in physiological saline was infused once into the left femoral vein (870 μg), thereafter continuous intravenous administration of the crude saponin fraction was performed for 7 days by using an Alza osmotic minipump (870 μg/day). Control animals with spinal cord injuries were administered with the same amount of physiological saline (vehicle) alone. […] These figures are photographs in place of drawings.
Under inhalation anesthesia by a mixture of nitrous oxide and halothane, wistar rats (body weight about 300 g) were loaded with 20 g of compression on the lower thoracic cord for 20 minutes. After they were awakened from anesthesia, the rats with paraplegia in both hindlimbs were allowed to stay for 1 hour and 40 minutes in the cage. […]

[2] = test system: gerbils with transient forebrain ischemia (hippocampal CA1 neurons); details: cited from earlier work
[3] = intravenously administered small amount (prior application); cited from earlier work

SMILES: CC(C)=CCC[C@](C)(O[C@@H]1O[C@H](CO[C@@H]2O[C@H](CO)[C@@H](O)[C@H](O)[C@H]2O)[C@@H](O)[C@H](O)[C@H]1O)[C@H]1CC[C@]2(C)[C@@H]1[C@H](O)C[C@@H]1[C@@]3(C)CC[C@H](O[C@@H]4O[C@H](CO)[C@@H](O)[C@H](O)[C@H]4O[C@@H]4O[C@H](CO)[C@@H](O)[C@H](O)[C@H]4O)C(C)(C)[C@@H]3CC[C@]12C [ginsenoside Rb1]
- healing of the operative dorsal wounds / ill effects ([1]; compared with rats administered with physiological saline): no such ill effects
- motor abilities (BBB scores) at the 7th day after spinal cord injury ([1]; ginsenoside Rb1 intravenous 12 μg/day and 60 μg/day): significantly ameliorated in a dose-dependent manner
- bedsore (decubitus) ([1]; ginsenoside Rb1 intravenous 60 μg/day starting 2 hours after spinal cord injury): hardly observed
- paraplegia of both hindlimbs ([1]; ginsenoside Rb1 intravenous 60 μg/day starting 2 hours after spinal cord injury, from 3-4 days after onset): gradually ameliorated
- paraplegia of both hindlimbs ([1]; ginsenoside Rb1 intravenous 60 μg/day starting more than 30 minutes after compression, 1-2 days later): significantly ameliorated
- delayed neuronal death and learning disability ([2]; intracerebroventricular infusion immediately after 3 or 3.5 minute occlusion): suppressed
- delayed neuronal death and learning disability ([2]; intraperitoneal 10 or 20 mg/kg once a day for one week in advance of 5-minute occlusion): significantly prevent
- nerve cells in the hippocampal CA1 area rescued ([2]; intraperitoneal 10 or 20 mg/kg/day before cerebral ischemia): approximately 30%
- effect on delayed neuronal death ([2]; intraperitoneal immediately after 3- or 5-minute occlusion of common carotid arteries): no effect
- transfer into the brain and nervous systems [3]: transferred quickly
